The values below come from US20230348376A1 (TEIJIN PHARMA LIMITED, priority 2020, published 2023).

The test has as its target T1, human VDR (Homo sapiens, UniProt P11473).
T1 sequence (P11473 1-427): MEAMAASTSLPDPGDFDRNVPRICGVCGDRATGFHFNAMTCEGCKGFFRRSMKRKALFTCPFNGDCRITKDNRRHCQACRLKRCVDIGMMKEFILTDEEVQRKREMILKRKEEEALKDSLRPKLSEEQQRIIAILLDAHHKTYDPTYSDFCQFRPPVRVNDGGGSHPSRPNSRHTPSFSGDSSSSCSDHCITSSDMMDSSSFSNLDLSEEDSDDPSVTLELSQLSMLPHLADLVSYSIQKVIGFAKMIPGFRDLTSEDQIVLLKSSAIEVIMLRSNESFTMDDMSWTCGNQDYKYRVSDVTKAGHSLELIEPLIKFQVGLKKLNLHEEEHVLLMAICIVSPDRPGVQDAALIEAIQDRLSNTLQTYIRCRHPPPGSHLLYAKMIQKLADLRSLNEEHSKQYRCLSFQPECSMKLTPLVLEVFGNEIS
T1 sequence (P19793 1-462 partner): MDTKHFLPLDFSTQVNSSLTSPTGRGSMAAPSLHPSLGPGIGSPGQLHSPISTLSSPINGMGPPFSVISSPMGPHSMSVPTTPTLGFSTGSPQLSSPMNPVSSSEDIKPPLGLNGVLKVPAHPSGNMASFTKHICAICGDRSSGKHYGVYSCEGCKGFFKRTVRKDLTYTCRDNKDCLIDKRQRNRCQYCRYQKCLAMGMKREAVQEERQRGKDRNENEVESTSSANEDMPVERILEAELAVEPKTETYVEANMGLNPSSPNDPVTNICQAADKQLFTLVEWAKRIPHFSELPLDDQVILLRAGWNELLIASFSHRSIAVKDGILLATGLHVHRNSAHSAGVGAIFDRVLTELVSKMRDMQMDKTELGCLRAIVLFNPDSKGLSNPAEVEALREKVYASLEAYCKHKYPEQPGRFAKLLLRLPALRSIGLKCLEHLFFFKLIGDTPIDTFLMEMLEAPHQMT
Kind of test: Evaluation of VDR transcription activity in human osteoblasts (HOS cells), luciferase reporter. As to conditions: HOS cells transfected with human VDR, human RXRα and DR3 luciferase reporter, 21 hours. For orientation: A reporter such as luciferase makes a cellular process visible.

[1] abbreviates: Activity (EC50, VDR transcription activity).

Where two headings read alike, the source gives them in different places. Where only a bound is given, the exact number is not on record here.

For `C=C1[C@H](O)CC(=C/C=C2\CCC[C@]3(C)[C@@H]([C@H](C)CN4CC[C@H](C(C)(F)F)C4)CC[C@@H]23)C[C@H]1O` [Compound B031, (1R,3R)-5-(2-((1R,3aS,7aR,E)-1-((S)-1-((S)-3-(1,1-difluoroethyl)pyrrolidin-1-yl)propan-2-yl)-7a-methyloctahydro-4H-inden-4-ylidene)ethylidene)-2methylenecyclohexane-1,3-diol], the EC50 under setting [1] is 1 to 10 nM.

As to `C=C1/C(=C\C=C2/CCC[C@]3(C)[C@@H]([C@H](C)CN4CCCC(C)(O)C4)CC[C@@H]23)C[C@@H](O)C[C@@H]1O` (single isomer, unassigned) [Compound C037a], the EC50 under setting [1] was below 1 nM.

Under setting [1], `C[C@H](CN1CC[C@@](C)(O)C1)[C@H]1CC[C@H]2/C(=C/C=C3CC(O)C[C@H](O)C3)CCC[C@]12C` (stereo in doubt) [Compound B075, (1R,3S)-5-(2-((1R,3aS,7aR,E)-1-((S)-1-((R)-3-hydroxy-3-methylpyrrolidin-1-yl)propan-2-yl)-7a-methyloctahydro-4H-inden-4-ylidene)ethylidene)cyclohexane-1,3-diol] registered an EC50 of 100 to 1000 nM. On the same count and under the same terms, the result for `C=C1/C(=C\C=C2/CCC[C@]3(C)[C@@H]([C@@H](C)CN4CCC(F)CC4)CC[C@@H]23)C[C@@H](O)C[C@@H]1O` [Compound C058] reads 10 to 100 nM; that for `C[C@@H](CN1CC[C@@H](CC(F)F)C1)[C@H]1CC[C@H]2/C(=C/C=C3CC(O)C[C@H](O)C3)CCC[C@]12C` (stereo in doubt) [Compound B103, (1R,3 S)-5-(2-((1R,3aS,7aR,E)-1-((R)-1-((S)-3-(2,2-difluoroethyl)pyrrolidin-1-yl)propan-2-yl)-7a-methyloctahydro-4H-inden-4-ylidene)ethylidene)cyclohexane-1,3-diol], 10 to 100 nM; that for `C=C1[C@H](O)CC(=C/C=C2\CCC[C@]3(C)[C@@H]([C@H](C)CN4CCC[C@@](C)(O)C4)CC[C@@H]23)C[C@H]1O` [Compound C040, (1R,3R)-5-(2-((1R,3aS,7aR,E)-1-((S)-1-((R)-3-hydroxy-3-methylpiperidin-1-yl)propan-2-yl)-7a-methyloctahydro-4H-inden-4-ylidene)ethylidene)-2-methylenecyclohexane-1,3-diol], 10 to 100 nM. Still for that read-out and setting: the result for `C=C1/C(=C\C=C2/CCC[C@]3(C)[C@@H]([C@H](C)CN4CC[C@@H](CCC(F)F)C4)CC[C@@H]23)C[C@@H](O)C[C@@H]1O` [Compound B060, (1R,3S,Z)-5-(2-((1R,3aS,7aR,E)-1-((S)-1-((R)-3-(3,3-difluoropropyl)pyrrolidin-1-yl)propan-2-yl)-7a-methyloctahydro-4H-inden-4-ylidene)ethylidene)-4-methylenecyclohexane-1,3-diol] reads 10 to 100 nM.

With `C=C1[C@H](O)CC(=C/C=C2\CCC[C@]3(C)[C@@H]([C@H](C)CN4CCC(O)(C(F)(F)F)C4)CC[C@@H]23)C[C@H]1O` (single isomer, unassigned) [Compound B046b], the EC50 (read-out: Activity (EC50, VDR transcription activity)) was below 1 nM. In the case of `C[C@H](CCCN1CC[C@H](C(F)F)C1)[C@H]1CC[C@H]2/C(=C/C=C3C[C@@H](O)C[C@H](O)C3)CCC[C@]12C` [Compound B084, (1R,3R)-5-(2-((1R,3aS,7aR,E)-1-((R)-5-((S)-3-(difluoromethyl)pyrrolidin-1-yl)pentan-2-yl)-7a-methyloctahydro-4H-inden-4-ylidene)ethylidene)cyclohexane-1,3-diol], the EC50 under setting [1] was in the range of 10 to 100 nM. Turning to `C=C1/C(=C\C=C2/CCC[C@]3(C)[C@@H]([C@H](C)CN4CCCC(O)(C(F)(F)F)C4)CC[C@@H]23)C[C@@H](O)[C@H](C)[C@@H]1O` (single isomer, unassigned) [Compound C031b], under setting [1], the EC50 fell in the range of 1 to 10 nM. Compound `C[C@H](CCCN1CC[C@H](F)C1)[C@H]1CC[C@H]2/C(=C/C=C3C[C@@H](O)C[C@H](O)C3)CCC[C@]12C` [Compound B016, (1R,3R)-5-(2-((1R,3aS,7aR,E)-1-((R)-5-((S)-3-fluoropyrrolidin-1-yl)pentan-2-yl)-7a-methyloctahydro-4H-inden-4-ylidene)ethylidene)cyclohexane-1,3-diol] gave an EC50 under setting [1] of 10 to 100 nM.

The EC50 is the concentration needed to bring the measured effect to its halfway point.
